Source: patent US9259482B2, “Conjugates of polymers having a therapeutically active agent and an angiogenesis targeting moiety attached thereto and uses thereof in the treatment of angiogenesis related diseases” (Ramot at Tel-Aviv University Ltd., priority 2008, dated 2016)
Like-named read-outs stand apart in the source and are kept apart here.

Tests used:
[1] = system: HUVEC; assay: Endothelial cell adhesion assay on fibrinogen coated plates; type: cell-based, human
Method: The ability of E-[c(RGDfk)2] and E-c(RGDfk) moieties (SEQ ID NOs: 2 and 41) in the conjugates to inhibit endothelial attachment to cellular matrix after conjugation, was assessed using an adhesion assay. Flat bottom 96-well culture plates (Nunc, Denmark) were coated with 0.5 μg/well fibrinogen overnight at 4° C. After washing three times with Phosphate buffered saline (PBS), the wells were blocked with 1% bovine serum albumin (BSA) for 1 hour at 37° C. and washed three times again with PBS. HUVEC were harvested in phosphate-buffered saline (137 mM NaCl, 2.7 mM KCl, 4.3 mM Na2HPO4, 1.4 mM KH2PO4, pH 7.3) with 2.5 mM EDTA and resuspended in EBM-2 serum-free media (Clonetics). HUVEC were incubated for 30 minutes, at room temperature, with the tested compounds. The treated HUVEC were plated at 5×10^4 cells per well and were allowed to attach for 1 hour at 37° C. After incubation, the unattached cells were removed by rinsing the wells with PBS. The attached cells were fixed with 3.7% formaldehyde, stained with 0.5% crystal violet and were imaged using Nikon TE2000E inverted microscope integrated with Nikon DS5 cooled CCD camera by 4× objective, brightfield technique. The number of attached cells was quantified with NIH ImageJ processing and analysis software. Non-specific binding was determined by adhesion of HUVEC cells, which were not incubated with any of the tested compounds, to BSA-coated plates.

[2] = Hydrodynamic diameter by Nanoparticle Tracking Analysis; type: physicochemical; settings: PTX loading of 2.3 mol % and -E-c(RGDfk) loading of 5 mol %; PBS; FIG. 9C
Method: The mean hydrodynamic diameter of the PGA conjugates was evaluated using a real time particle analyzer (NanoSight LM20™) containing a solid-state, single mode laser diode (<20 mW, 655 nm) configured to launch a finely focused beam through a 500 μl sample chamber. The tested conjugate was dissolved in PBS to a final concentrations of 9.9 mg/ml. The samples were then injected into the chamber by syringe and allowed to equilibrate to a unit temperature (23° C.) for 30 seconds. The particles dynamics were visualized at 30 frames per second (fps) for 60 seconds at 640×480 resolution by the device CCD camera. The paths the particles take under Brownian motion over time were analyzed using Nanoparticle Tracking Analysis (NTA) software. […] Each sample was measured three times in triplicates, and the results represent the mean diameter.

[3] = system: HUVEC; assay: cells; type: cell-based, human
Method: (§1) The anti-angiogenesis and anti-proliferative activity of the conjugates described herein was evaluated by the effect of the conjugates on the proliferation of HUVEC, U87 and PANC02 cells.
(§2) HUVEC were plated onto 24-well plate (1×10^4 cells/well) in endothelial cell basal medium 2 (EBM-2; Cambrex, USA) supplemented with 5% fetal bovine serum (FBS). Following 24 hours of incubation (37° C.; 5% CO2) medium was replaced with Endothelial cell growth medium-2 (EGM-2; Cambrex, USA). U87 and PANC02 cells were plated onto 96 well plate (2×10^3 cells/well) in DMEM supplemented with 5% FBS and incubated for 24 hours (37° C.; 5% CO2). Following 24 hours of incubation the medium was replaced with DMEM containing 10% FBS. Cells were challenged with the tested compounds at serial concentrations for 72 hours. After incubation the number of HUVEC were counted by Coulter Counter and U87, and PANC02 cells were counted by XTT respectively.

[4] = system: mCherry-labeled U87 human osteosarcoma tumors; assay: In vivo accumulation of OG-labeled conjugates in tumors, confocal microscopy; parameters: species or system SCID mice; settings: i.v., 50 μM-RGD; tumors removed one hour after injection; FIG. 17A
Text: SCID male were inoculated s.c. with 2×10^6 mCherry-labeled U87 human […] or with 5×10^6 mCherry-labeled MG-63 human osteosarcoma. […] One hour after injection, tumors were removed, dissected to thin slices and examined under Zeiss Meta LSM 510 confocal imaging system.
Cellular colocalization of OG labeled PGA-E-[c(RGDfk)2] (SEQ ID NO: 25) conjugate was monitored utilizing a Zeiss Meta LSM 510 confocal imaging systems with 40 oil objectives. All images were taken using a multi-track channel acquisition to prevent emission cross-talk between fluorescent dyes. Single XY, XZ plane-images were acquired in 1024×1024 resolution.

[5] = system: PANC02 murine pancreatic tumor cells; assay: Cell proliferation assay, PANC02; type: cell-based
Method: as §1, §2

[6] = molecular target: Cathepsin B (Homo sapiens, UniProt P07858); assay: Release of PTX from conjugates in the presence of Cathepsin B; type: in vitro ADME
Method: The ability of Cathepsin B to cleave and therefore release PTX from PGA copolymer-E-c(RGDfk)2-PTX (SEQ ID NO:18) was assessed as follows:
Cathepsin B (5 U) was added last to a 1 ml solutions containing 3 mg of the tested conjugates and 20 mM sodium acetate, 2 mM EDTA and 5 mM DTT at a pH of 6 and at a temperature of 37° C. Solutions containing free PGA polymer and free PTX served as control. Sample aliquots (100 μl) were taken at various time points up to 72 hours, frozen and stored in liquid nitrogen, until assayed by HPLC (by Porous50 resin) and/or by Gel permeation chromatography (GPC; direct analysis of 50 μl aliquots). PGA polymer incubated in buffer alone (without addition of cathepsin B) served as an additional control to assess non-enzymatic hydrolytic cleavage. The amount of free PTX released from the tested compounds was assessed by HPLC (X=220 nm). Doxycycline was used as internal standard in all cases. In addition, an LC-MS analysis of the released compounds was also carried out to in order determine the major metabolites released. The MW of the conjugates was determined by diluting 50 μl aliquots of the conjugate containing solution to a final volume of 200 μl with PBS buffer and subjecting the aliquots to GPC analysis (Viscotek TDA detector).

[7] = system: HUVEC; assay: Migration assay of HUVEC towards VEGF; type: cell-based, human; settings: equivalent concentrations of 100 nM PTX; conjugate with 5 mol % E-[c(RGDfk)2], 2.6 mol % PTX; FIG. 14
Method: The anti-angiogenesis activity of the conjugates was evaluated by examining the effect of the conjugates on the ability of HUVEC to migrate toward the Vascular Endothelial Growth Factor (VEGF).
Cell migration assay was performed using modified 8 μm Boyden chambers Transwells® (Costar Inc., USA) coated with 10 μg/ml fibronectin HUVEC (15×10^4 cells/100 μl) were challenged with the tested compounds that were added to the upper chamber of the transwells for 2 hours. Following incubation, cells were allowed to migrate to the underside of the chamber for 4 hours in the presence or absence of VEGF (20 ng/ml) in the lower chamber. Cells were then fixed and stained (Hema 3 Stain System; Fisher Diagnostics, USA). The stained migrated cells were imaged using Nikon TE2000E inverted microscope integrated with Nikon DS5 cooled CCD camera by 10× objective, brightfield illumination. Migrated cells from the captured images per membrane were counted using NIH image software. Migration was normalized to the percent of migration toward VEGF of HUVEC which were not incubated with any compound. The extent of migration is inversely proportional to the anti-angiogenesis activity of the compounds.

[8] = system: HUVEC; assay: Capillary-like tube formation assay; type: cell-based, human; settings: equivalent concentrations of 10 nM (PTX) and 19 nM (E-[c(RGDfk)2]); conjugate with 5 mol % E-[c(RGDfk)2], 2.6 mol % PTX; FIG. 16B
Method: The anti-angiogenesis activity of the conjugates was evaluated by the effect of the conjugates on the ability of HUVEC cells to form capillary-like tube structures.
The surface of 24-well plates was coated with Matrigel matrix (50 μl/well) (BD Biosciences, USA) on ice and was then allowed to polymerize at 37° C. for 30 minutes. HUVEC (3×10^4 cells) were challenged with the tested compounds, and were seeded on coated plates in the presence of complete EGM-2 medium. After 8 hours of incubation (37° C.; 5% CO2), wells were imaged using Nikon TE2000E inverted microscope integrated with Nikon DS5 cooled CCD camera by 4× objective, brightfield technique. During the tube formation assay endothelial cells directionally migrate to align, branch and form polygonal networks (i.e. tube like structures). The extent of capillary-like tube structures is inversely proportional to the anti-angiogenesis activity of the compounds.

[9] = molecular target: T1, αvβ3 integrin receptor (Homo sapiens, UniProt P05106+P06756); assay: αvβ3 interaction with fluorescently labeled conjugates in HUVEC; type: cell-based
T1 construct: endogenous in cells; host or cells: HUVEC
Method: A fluorescence probe, Oregon Green-cadaverine (OG), was conjugated to PGA conjugates through the free carboxylic groups (see Example 5 for synthesis description), in order to study the cellular uptake and trafficking.
HUVEC were plated onto 6 mm plates (5×10^5 cells/plate) in EBM-2 (Cambrex, USA) supplemented with 5% FBS. Following 24 hours of incubation (37° C.; 5% CO2), cells were challenged with either PGA-OG, PGA-c(RADfk)-OG (SEQ ID NO: 24) or PGA-E-[c(RGDfk)2]-OG (SEQ ID NO:25) diluted in EGM-2 medium for 5, 10, 15, 30 or 60 minutes. Cells were then washed in PBS (×3), harvested with PBS containing 2.5 mM EDTA and analyzed with the ImageStream 100 imaging flow cytometer (Amnis). Analysis was performed using IDEAS software.

[10] = HUVEC proliferation, nM PTX, FIG. 13A (5 mol % E-[c(RGDfk)2], 2.6 mol % PTX) and FIG. 13B (monocyclic), read-out: IC50, bell shaped effect, higher value
[11] = HUVEC proliferation, nM PTX, FIG. 13A (5 mol % E-[c(RGDfk)2], 2.6 mol % PTX) and FIG. 13B (monocyclic), read-out: IC50, bell shaped effect, lower value
[12] = HUVEC, 72 hours, bis-cyclic RGD compounds (X = 2), NA = did not reach IC50 in the concentrations used, 'a -- b' = bell-shaped curve, read-out: IC50 (nM) of PGA- PTX-E-[c(RGDfk)2] (SEQ ID NO: 18) 2.6 mol % PTX, 5 mol % RGD

T1 sequence (P06756 31-889 limits assumed): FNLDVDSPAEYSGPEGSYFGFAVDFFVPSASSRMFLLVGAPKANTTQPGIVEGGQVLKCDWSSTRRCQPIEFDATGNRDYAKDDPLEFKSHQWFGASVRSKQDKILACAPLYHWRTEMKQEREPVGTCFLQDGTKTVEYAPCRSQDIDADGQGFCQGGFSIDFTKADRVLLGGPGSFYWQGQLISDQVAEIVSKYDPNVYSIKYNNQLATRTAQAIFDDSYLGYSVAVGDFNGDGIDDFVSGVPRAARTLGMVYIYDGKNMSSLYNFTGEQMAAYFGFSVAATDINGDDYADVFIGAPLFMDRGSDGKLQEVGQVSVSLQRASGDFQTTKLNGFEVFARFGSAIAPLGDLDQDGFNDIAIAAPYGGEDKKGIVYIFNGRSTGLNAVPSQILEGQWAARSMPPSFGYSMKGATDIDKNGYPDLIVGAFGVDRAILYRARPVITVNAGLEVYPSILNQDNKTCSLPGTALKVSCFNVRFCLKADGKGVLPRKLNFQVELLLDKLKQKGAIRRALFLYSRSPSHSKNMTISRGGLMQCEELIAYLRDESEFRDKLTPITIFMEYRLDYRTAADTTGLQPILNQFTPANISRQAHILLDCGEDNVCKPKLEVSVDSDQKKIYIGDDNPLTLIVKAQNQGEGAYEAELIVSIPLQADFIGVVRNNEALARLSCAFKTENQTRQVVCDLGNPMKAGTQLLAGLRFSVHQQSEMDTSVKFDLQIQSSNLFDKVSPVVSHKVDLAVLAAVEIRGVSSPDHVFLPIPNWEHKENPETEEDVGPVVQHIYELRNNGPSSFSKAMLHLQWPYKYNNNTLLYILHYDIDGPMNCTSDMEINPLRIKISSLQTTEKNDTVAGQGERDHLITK
T1 sequence (P06756 891-1048 limits assumed): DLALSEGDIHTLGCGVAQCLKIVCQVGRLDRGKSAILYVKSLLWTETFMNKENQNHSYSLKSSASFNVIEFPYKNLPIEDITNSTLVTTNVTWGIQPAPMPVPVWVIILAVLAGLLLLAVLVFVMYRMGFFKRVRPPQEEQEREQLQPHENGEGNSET
T1 sequence (P05106 27-788): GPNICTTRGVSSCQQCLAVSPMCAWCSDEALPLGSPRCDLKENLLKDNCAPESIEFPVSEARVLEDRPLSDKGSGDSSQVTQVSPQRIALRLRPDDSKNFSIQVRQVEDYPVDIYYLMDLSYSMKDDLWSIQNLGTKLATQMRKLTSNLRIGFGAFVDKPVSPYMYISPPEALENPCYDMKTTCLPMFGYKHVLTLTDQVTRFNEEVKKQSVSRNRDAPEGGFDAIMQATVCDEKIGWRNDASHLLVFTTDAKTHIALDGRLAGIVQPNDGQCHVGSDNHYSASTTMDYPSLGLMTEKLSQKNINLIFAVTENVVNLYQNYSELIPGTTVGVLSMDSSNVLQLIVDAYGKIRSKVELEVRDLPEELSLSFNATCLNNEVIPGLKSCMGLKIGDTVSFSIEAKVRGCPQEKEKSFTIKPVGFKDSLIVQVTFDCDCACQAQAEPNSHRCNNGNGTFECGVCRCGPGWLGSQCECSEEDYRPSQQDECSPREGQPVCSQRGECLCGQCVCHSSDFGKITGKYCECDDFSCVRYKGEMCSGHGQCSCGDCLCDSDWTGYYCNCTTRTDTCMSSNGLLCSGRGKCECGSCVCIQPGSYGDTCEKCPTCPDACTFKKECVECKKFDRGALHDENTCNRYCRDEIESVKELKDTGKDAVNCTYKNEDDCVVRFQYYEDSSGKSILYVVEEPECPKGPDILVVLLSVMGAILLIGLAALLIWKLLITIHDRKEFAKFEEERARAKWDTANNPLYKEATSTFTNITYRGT

Question: Which results are given for PGA-PTX-E-c(RGDfk)?
Answer: inhibition of HUVEC adhesion to fibrinogen ([1]; equivalent concentrations of 50 μM RGD, FIG. 15): ~50%; mean hydrodynamic diameter [2]: about 35 nm; IC50 [3, 10]: ~20 nM; IC50 [3, 11]: ~0.2 nM

Question: Which “accumulation of the conjugate at the tumor site” value [4] does the source give for PGA-E-[c(RGDfk)2] here?
Answer: able to accumulate in the tumor tissue

Question: What about the “effect on HUVEC proliferation” value ([3]; FIG. 12A) of the same substance?
Answer: only at high concentrations

Question: What about the IC50 [3, 12] of the same substance?
Answer: 2900 nM

Question: What about the IC50 ([3]; HUVEC, 72 hours, bis-cyclic RGD compounds (X = 2), NA = did not reach IC50 in the concentrations used, 'a -- b' = bell-shaped curve, read-out: IC50 (nM) of PGA- PTX-E-[c(RGDfk)2] (SEQ ID NO: 18) 5 mol % PTX, 3.9 mol % RGD) of the same substance?
Answer: 7000 nM

Question: Which “adhesion inhibition compared with the monocyclic conjugate PGA-PTX-E-c(RGDfk)” value ([1]; both loadings of the bis-cyclic conjugate) does the source give for “PGA-Copolymer -E-c(RGDfk)2-Paclitaxel [PGA-PTX-E-[c(RGDfk)2]]” here?
Answer: inhibited the adhesion more effectively than the monocyclic RGDfk peptide conjugate

Question: And the “adhesion inhibition compared with the other loading” value ([1]; conjugate with 3.9 mol % E-[c(RGDfk)2] and 5.5 mol % PTX versus conjugate with 5 mol % E-[c(RGDfk)2] and 2.6 mol % PTX)?
Answer: more effective than the second

Question: And the IC50 ([5]; PANC02, 72 hours, bis-cyclic RGD compounds (X = 2), NA = did not reach IC50 in the concentrations used, read-out: IC50 (nM) of PGA- PTX-E-[c(RGDfk)2] (SEQ ID NO: 18) 5 mol % PTX, 3.9 mol % RGD)?
Answer: 650 nM

Question: What about the IC50 ([5]; nM PTX, equivalent doses, FIG. 12C, read-out: IC50 of PANC02 proliferation) of the same substance?
Answer: ~650 nM

Question: And the “PTX release kinetics compared to the other conjugates” value ([6]; conjugate with 3.9 mol % E-[c(RGDfk)2], 5.5 mol % PTX, pH 6, 37° C.)?
Answer: slightly faster release kinetics

Question: And the “PTX release compared with the conjugate of 2.6 mol % PTX, 5 mol % E-[c(RGDfk)2]” value ([6]; conjugate with 5.5 mol % PTX, 3.9 mol % E-[c(RGDfk)2], after 48 hours)?
Answer: greater

Question: And the “inhibition of the migration of HUVEC towards VEGF” value [7]?
Answer: about 40%

Question: And the IC50 [3, 10]?
Answer: ~20 nM

Question: And the IC50 [3, 11]?
Answer: ~0.2 nM

Question: What about the IC50 [3, 12] of the same substance?
Answer: 25 nM

Question: What about the “inhibition of the formation of tubular structures of HUVEC” value [8] of the same substance?
Answer: about 40%

Question: Which “accumulation of the conjugate at the tumor site” value [4] does the source give for PGA-E-[c(RGDfk)2]-OG here?
Answer: high accumulation

Question: And the “time at which conjugate-cell adherence was first observed” value ([9]; ImageStream 100 imaging flow cytometer)?
Answer: 10 min

Question: What about the “extent of binding / uptake by HUVEC” value ([9]; OG fluorescence, FIGS. 11B, 11C) of the same substance?
Answer: higher uptake
